Results on 18 compounds are retold here after US20220160686A1, “MACROCYCLIC AZOLOPYRIDINE DERIVATIVES AS EED AND PRC2 MODULATORS” (Fulcrum Therapeutics, Inc., priority 2019, published 2022).

Read-outs that look alike come from different tables or passages of the source.

The experiment has as its system human P-glycoprotein HEK cells (HEK-P-gp). The experiment can be described thus: H3K27me3 immunocytochemistry assay in P-gp expressing HEK293T cells, with or without elacridar. In kind it is cell-based. The following applies: Homo sapiens, 4 days compound treatment. Put shortly:
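HEK293T stably expressing human ABCB1 (vinblastine-selected), 1000 cells/well, treated with serially diluted compound for 4 days at 37° C, with or without 250 nM elacridar. Fixed cells stained with anti-H3K27me3 plus Alexa 488 secondary and Hoechst; imaged at 10×, nuclei identified by Hoechst.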

Setting [1] is: HEK293, 96 h, without elacridar, read-out: IC50, inhibitory activity on human P-glycoprotein HEK cells (HEK-P-gp).
The mark [2] stands for this setting: HEK293, with 250 nM elacridar, read-out: IC50, inhibitory activity on human P-glycoprotein HEK cells (HEK-P-gp) pretreated with elacridar.

In general, IC50 refers to the concentration needed to halve the response being measured. Consider `Cc1cn(-c2cc3c(n4cnnc24)NCc2c(F)ccc4c2[C@@H](CO4)CO3)cn1` [Compound 15, (S)-12-fluoro-4-(4-methyl-1H-imidazol-1-yl)-7a,8,13,14-tetrahydro-7H-[1,2,4]triazolo[4′,3′:1,6]pyrido[3,2-b]benzofuro[4,3-fg][1,4]oxazonine], for which the IC50 is 0.025 to 0.05 µM under setting [1] and below 0.025 µM under setting [2].
The like results for `COC(=O)N1CCC(c2cc3c(n4cnnc24)NCc2c(F)ccc4c2C(CO4)CO3)CC1` [Compound 16, methyl (S)-4-(12-fluoro-7a,8,13,14-tetrahydro-7H-[1,2,4]triazolo[4′,3′:1,6]pyrido[3,2-b]benzofuro[4,3-fg][1,4]oxazonin-4-yl)piperidine-1-carboxylate] were, in that order, 0.1 to 0.5 µM and 0.05 to 0.1 µM.
Consider `Fc1cncnc1-c1cc2c(n3cnnc13)NCc1c(F)ccc3c1[C@@H](CO3)CO2` [Compound 164, (S)-12-fluoro-4-(5-fluoropyrimidin-4-yl)-7a,8,13,14-tetrahydro-7H-[1,2,4]triazolo[4′,3′:1,6]pyrido[3,2-b]benzofuro[4,3-fg][1,4]oxazonine], for which the IC50 reads like this: under setting [1], below 0.025 µM; under setting [2], below 0.025 µM.
For `Fc1ccc2c3c1CNc1c(cc(Br)c4nncn14)OC[C@@H]3CO2` [Compound 165, (S)-4-bromo-12-fluoro-7a,8,13,14-tetrahydro-7H-[1,2,4]triazolo[4′,3′:1,6]pyrido[3,2-b]benzofuro[4,3-fg][1,4]oxazonine], the IC50 runs as follows: under setting [1], above 0.5 µM; under setting [2], above 0.5 µM.
In the case of `Cn1nc(OC(F)F)cc1-c1cc2c(n3cnnc13)NCc1c(F)ccc3c1[C@@H](CO3)CO2` [Compound 167, (S)-4-(3-(difluoromethoxy)-1-methyl-1H-pyrazol-5-yl)-12-fluoro-7a,8,13,14-tetrahydro-7H-[1,2,4]triazolo[4′,3′:1,6]pyrido[3,2-b]benzofuro[4,3-fg][1,4]oxazonine], the IC50 by setting is: under setting [1], below 0.025 µM; under setting [2], below 0.025 µM.
On to `Cn1nc(F)cc1-c1cc2c(n3cnnc13)NCc1c(F)ccc3c1[C@@H](CO3)CO2` [Compound 168, (S)-12-fluoro-4-(3-fluoro-1-methyl-1H-pyrazol-5-yl)-7a,8,13,14-tetrahydro-7H-[1,2,4]triazolo[4′,3′:1,6]pyrido[3,2-b]benzofuro[4,3-fg][1,4]oxazonine], for which the IC50 under setting [1] was below 0.025 µM and the IC50 under setting [2] is below 0.025 µM.
In the case of `Cn1nc(C(C)(C)C#N)cc1-c1cc2c(n3cnnc13)NCc1c(F)ccc3c1[C@@H](CO3)CO2` [Compound 169, (S)-2-(5-(12-fluoro-7a,8,13,14-tetrahydro-7H-[1,2,4]triazolo[4′,3′:1,6]pyrido[3,2-b]benzofuro[4,3-fg][1,4]oxazonin-4-yl)-1-methyl-1H-pyrazol-3-yl)-2-methylpropanenitrile], the IC50 under setting [1] is below 0.025 µM and the IC50 under setting [2] was below 0.025 µM.
In the case of `Cn1nccc1-c1cc2c(n3cc(C#N)nc13)NCc1c(F)ccc3c1[C@@H](CO3)CO2` [Compound 172, (S)-5-fluoro-12-(1-methyl-1H-pyrazol-5-yl)-6,7,15,15a-tetrahydro-1H-benzofuro[4,3-fg]imidazo[r,2′:1,6]pyrido[3,2-b][1,4]oxazonine-10-carbonitrile], the IC50 runs as follows: under setting [1], 0.025 to 0.05 µM; under setting [2], 0.025 to 0.05 µM.
Turning to `Cn1nccc1-c1cc2c(n3cc(C(N)=O)nc13)NCc1c(F)ccc3c1[C@@H](CO3)CO2` [Compound 175, (S)-5-fluoro-12-(1-methyl-1H-pyrazol-5-yl)-6,7,15,15a-tetrahydro-1H-benzofuro[4,3-fg]imidazo[r,2′:1,6]pyrido[3,2-b][1,4]oxazonine-10-carboxamide], the IC50 is, setting by setting: under setting [1], above 0.5 µM; under setting [2], 0.1 to 0.5 µM.
As for `Cc1ncccc1-c1cc2c(n3cc(C(N)=O)nc13)NCc1c(F)ccc3c1[C@@H](CO3)CO2` [Compound 176, (S)-5-fluoro-12-(2-methylpyridin-3-yl)-6,7,15,15a-tetrahydro-1H-benzofuro[4,3-fg]imidazo[r,2′:1,6]pyrido[3,2-b][1,4]oxazonine-10-carboxamide], the IC50 is above 0.5 µM under setting [1] and above 0.5 µM under setting [2].
On to `Cc1ncccc1-c1cc2c(n3cc(C#N)nc13)NCc1c(F)ccc3c1[C@@H](CO3)CO2` [Compound 186, (S)-5-fluoro-12-(2-methylpyridin-3-yl)-6,7,15,15a-tetrahydro-1H-benzofuro[4,3-fg]imidazo[1′,2′:1,6]pyrido[3,2-b][1,4]oxazonine-10-carbonitrile], for which the IC50 by setting is: under setting [1], 0.05 to 0.1 µM; under setting [2], 0.025 to 0.05 µM.
In the case of `Cc1ncoc1-c1cc2c(n3cnnc13)NCc1c(F)ccc3c1[C@@H](CO3)CO2` [Compound 189, (S)-12-fluoro-4-(4-methyloxazol-5-yl)-7a,8,13,14-tetrahydro-7H-[1,2,4]triazolo[4′,3′:1,6]pyrido[3,2-b]benzofuro[4,3-fg][1,4]oxazonine], the IC50 by setting is: under setting [1], below 0.025 µM; under setting [2], below 0.025 µM.
Consider `Cn1nccc1-c1cc2c(n3cnnc13)NCc1c(F)ccc3c1C(CO3)CO2` (stereo not drawn) [Example 17], for which the IC50 under setting [1] is below 0.025 µM and the IC50 under setting [2] is below 0.025 µM.
As for `COc1ncc(-c2cc3c(n4cnnc24)NCc2c(F)ccc4c2[C@H](CO4)CO3)cn1` [Example 30], the 50% inhibitory concentration (IC50) lay in the range of 0.05 to 0.1 µM under setting [1] and 0.025 to 0.05 µM under setting [2].
As to `CS(=O)(=O)c1ccc(-c2cc3c(n4cnnc24)NCc2c(F)ccc4c2C(CO4)CO3)cc1` (stereo not drawn) [Example 36], the IC50 is below 0.025 µM under setting [1] and below 0.025 µM under setting [2].
Take `CN(CC(F)(F)F)C(=O)c1cc2c(n3cnnc13)NCc1c(F)ccc3c1C(CO3)CO2` (stereo not drawn) [Example 38]: the half-maximal inhibitory concentration (IC50) reads like this: under setting [1], 0.05 to 0.1 µM; under setting [2], 0.1 to 0.5 µM.
On to `Cc1cc(C#N)ccc1-c1cc2c(n3cnnc13)NCc1c(F)ccc3c1[C@H](CO3)CO2` [Example 49], for which the 50% inhibitory concentration (IC50) runs as follows: under setting [1], 0.025 to 0.05 µM; under setting [2], below 0.025 µM.
`Cn1nc(C(F)(F)F)cc1-c1cc2c(n3cnnc13)NCc1c(F)ccc3c1[C@H](CO3)CO2` [Example 115]: the IC50 reads like this: under setting [1], 0.025 to 0.05 µM; under setting [2], below 0.025 µM.
